The values that follow come from paper PMC11323500, “Functional redundancy of ubiquitin-like sulfur-carrier proteins facilitates flexible, efficient sulfur utilization in the primordial archaeon Thermococcus kodakarensis” (mBio, 2024).

The assay addresses T1, TK2117 (with TK2118 / UblB) (Thermococcus kodakarensis, UniProt Q5JEX2).
T1 construct: tag removal not mentioned; with Ubiquitin-like sulfur-carrier protein UblB (MoaD family)
T1 sequence (Q5JEX2 1-232): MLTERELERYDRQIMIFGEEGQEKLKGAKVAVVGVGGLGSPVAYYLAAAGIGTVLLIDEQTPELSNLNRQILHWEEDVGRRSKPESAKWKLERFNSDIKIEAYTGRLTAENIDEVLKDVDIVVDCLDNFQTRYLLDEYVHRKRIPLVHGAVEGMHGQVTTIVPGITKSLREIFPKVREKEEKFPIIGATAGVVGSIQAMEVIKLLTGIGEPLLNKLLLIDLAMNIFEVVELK
T1 sequence (Q5JEX1 1-88 partner): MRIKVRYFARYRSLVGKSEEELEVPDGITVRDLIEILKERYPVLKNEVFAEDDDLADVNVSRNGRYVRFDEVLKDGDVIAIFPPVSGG
Briefly: pyrophosphate release measured as phosphate (Biomol Green, inorganic pyrophosphatase). The format is biochemical. The conditions noted are these: 10 mM ATP; 5 mM MgCl2; 4.0 µM TK2117; 10.0 µM TK2118 as co-substrate; pH 8.0; 80 °C.

`Nc1ncnc2c1ncn2[C@@H]1O[C@H](COP(=O)(O)OP(=O)(O)OP(=O)(O)O)[C@@H](O)[C@H]1O` [ATP]: the “pyrophosphate release measured as phosphate (Biomol Green, inorganic pyrophospha)” value is recorded as “TK2117 formed pyrophosphate in the presence of TK2118”.
